Where a name gives a salt, the structure may show the parent alone.
Key:
[1] = system: ST502 patient derived xenograft; test: ST502 triple negative breast PDX model; type: in vivo, nu/nu mice
Description: (§1) Patient derived xenograft (PDX) studies were performed at South Texas Accelerated Research Therapeutics (START, San Antonio, TX). Patient tumor tissues were obtained with patients’ informed consent and PDX models were generated after multiple generations in mice. […] Tumor fragments were harvested from host animals and implanted into 6–12 weeks old female athymic nude mice (Crl:NU(NCr)-Foxn1nu). Intravenous treatments were initiated when ST502 (triple negative breast) tumors were approximately 112–333 mm^3, ST738 (triple negative breast) tumors were 112–300 mm^3, ST040 (endometrial) tumors were 78–333 mm^3, and ST070 (ovarian) tumors were 131–266 mm^3 in volume.
(§2) Animals in the control groups received no treatment. Growth of each subcutaneous tumor was followed by measuring the tumor 3 times per week during treatment and twice per week thereafter, until a maximum volume of 1,500 mm^3 for mice and 15,000 mm^3 for rats were reached. Tumors were measured in two perpendicular directions using Vernier calipers, and their volumes were calculated as V = 0.5 × L × W^2, where L = measurement of longest axis in mm and W = measurement of axis perpendicular to L in mm[16]. As a general measure of gross toxicity, changes in body weights were determined on the same schedule as tumor volume measurements. Survival of animals was monitored daily. Animals that were moribund (or unable to reach food or water) were euthanized by CO2 asphyxiation. Individual tumor response endpoints were reported in terms of tumor volume change. A partial response (PR) was defined as volume regression > 50% but with measurable tumor (> 2 mm^3) remaining at all times. Complete response (CR) was defined as a disappearance of measurable tumor mass (< 2 mm^3) at some point within 90 days after tumor implantation. Cures were defined as CRs without tumor regrowth within the 90-day study time frame.

[2] = system: ST738 patient derived xenograft; test: ST738 triple negative breast PDX model; type: in vivo, nu/nu mice; details: Eribulin mesylate 1 mg/kg SIW x 2 weeks, n=7
Description: as §1, §2

[3] = system: KB-CR tumors; test: Cisplatin-resistant KB-CR tumor xenograft in nu/nu mice; type: in vivo
Description: (§3) Four- to eight-week-old female nu/nu mice and rats (Harlan Sprague Dawley, Inc.), were maintained on a standard 12-h light–dark cycle and fed ad libitum with a low-folate chow (Harlan Teklad diet #TD.01013, Madison, WI) for the duration of dosing and 1 week post dosing schedule. Mice and rats were then switched to Teklad Global 18% Rodent diet (Harlan Teklad diet #2018S) during the monitoring phase of the study. Parental KB, KB-CR2000 or KB-PR10 cells (1 × 10^6/100 µL per nu/nu mouse and 5 × 10^6/200 µL per nu/nu rat) were injected into the subcutis of the dorsal medial area. Mice were divided into groups of 5 and rats in groups of 3–4, and freshly prepared test articles were injected through the lateral tail vein under sterile conditions in a volume of 200 μL/20 g of PBS. In mice, intravenous treatments typically initiated on day 7 PTI when KB tumors were approximately 111–168 mm^3 in volume, on day 5 PTI when the KB-PR tumors were about 205–243 mm^3, and on day 6 PTI when the KB-CR tumors were around 98 to 168 mm^3. Treatments in rats were started on day 10 PTI when KB tumors were approximately 412–704 mm^3 in volume.
as §2

[4] = parameters: method as in PMID 19276288; details: clinical studies, untargeted agent ref 19; cited from earlier work
[5] = system: KB tumor xenografts; test: KB tumor xenograft in nu/nu mice; type: in vivo; details: SJG-136 0.3 mg/kg SIW x 2 weeks
Description: as §3, §2

[6] = Plasma stability, rat; type: in vitro ADME; details: 37 °C
Description: (§4) Whole blood and plasma stability were determined for EC2629 and EC2491 at a concentration of 500 nM. Samples were extracted and analyzed using fit-for-purpose bioanalytical methods. EC2629 or EC2491 was spiked into 1 mL whole blood or plasma maintained at 37 °C for 30 min prior to use . Fifty µl aliquots were then removed at defined timepoints and stored in a 1.2 mL extraction plate prior to analysis. Samples were then extracted using protein precipitation with a 3:1 ratio of acetonitrile after addition of internal standard. The supernatant was then transferred to a new plate, evaporated, and reconstituted prior to LC–MS/MS analysis.

[7] = Plasma stability, dog; type: in vitro ADME; details: 37 °C
Description: as §4

[8] = Whole blood stability, rat; type: in vitro ADME; details: 37 °C, after two hours, read-out: percent remaining in whole blood
Description: as §4

[9] = Whole blood stability, human; type: in vitro ADME; details: 37 °C, after two hours, human whole blood, read-out: percent remaining in whole blood
Description: as §4

[10] = Liver microsome stability assay, dog; type: in vitro ADME; details: 1 µM; for percent of compound remaining: 37 °C
Description: (§5) Appropriate microsomes (XenoTech) were incubated with EC2491 in the presence or absence of NADPH regenerating system (Corning Gentest) at 37 °C. Incubations with NADPH contained 352.5 μL DI water, 100 μL 0.5 M potassium phosphate buffer, pH 7.4, 25 μL NADPH solution A, […], and 12.5 μL of the appropriate microsomes. Incubations without NADPH contained 382.5 μL water, 100 μL 0.5 M potassium phosphate buffer, pH 7.4, and 12.5 μL of the appropriate microsomes. 50 μL aliquots were withdrawn at various time points and mixed with internal standard, EC3044 (Endocyte) in acetonitrile. After mixing and evaporation of the acetonitrile, the samples were reconstituted. The samples were mixed, centrifuged, and 100 μL of supernatant was transferred to a new plate prior to LC–MS/MS analysis.

[11] = Whole blood stability, dog; type: in vitro ADME; details: 37 °C, after two hours, read-out: percent remaining in whole blood
Description: as §4

[12] = Whole blood stability, mouse; type: in vitro ADME; details: 37 °C, after two hours, mouse whole blood, read-out: percent remaining in whole blood
Description: as §4

[13] = Liver microsome stability assay, human; type: in vitro ADME; details: 1 µM, human liver microsomes, 37 °C
Description: as §5

[14] = Stability in phosphate buffer pH 7.4; type: physicochemical; details: 1 µM, 0.1 M phosphate buffer, pH 7.4, up to 1 h at 37 °C
Description: The in vitro metabolic stability of EC2491 was evaluated using rat, dog, and human liver microsomes in the presence and absence of NADPH. Stability of EC2491 was also evaluated in phosphate buffer, pH 7.4, under the incubation conditions (see Fig. 7a). EC2491 (1 µM) is stable in 0.1 M phosphate buffer, pH 7.4 up to 1 h at 37 °C. When EC2491 (1 µM) is incubated with male rat, dog, and human microsomes in the absence of NADPH, there is some depletion of the compound such that approximately 63%, 56%, and 49% of the compound remains after 1 h in rat, dog, and human microsomes, respectively. […] In the presence of NADPH male rat liver microsomes metabolize EC2491 rapidly such that only 2% of the compound remains in the incubation mixture at the end of 1 h. Male dog and human liver microsomes metabolize EC2491 somewhat slowly (22% and 18% remaining at the end of 1 h respectively). This is indicative of CYP-mediated metabolism of EC2491.

[15] = Plasma protein binding (ultrafiltration), across all species; type: in vitro ADME; details: rat, mouse, dog, human, 37 °C, read-out: plasma protein binding, range across all species
Description: Plasma ultrafiltration was used for determination of free and protein bound fractions of EC2629 and EC2491. Samples were extracted and analyzed using fit-for-purpose bioanalytical methods. Briefly, 500 nM EC2629 or EC2491 was spiked into plasma maintained at 37 °C prior to plasma ultrafiltration. Plasma spiked with 500 nM EC2629 or EC2491 was allowed to equilibrate at 37 °C for 30 min prior to processing. Next, 50 μL of plasma was transferred to a clean 1.2 mL plate stored at 2–8 °C for further processing. The remaining plasma sample volumes were transferred to 30 Kd MWCO PES filter to generate plasma ultrafiltrate by centrifugation at 10,000×g for 20 min. After which, 50 μL of each plasma ultrafiltrate was transferred to separate wells in a clean 1.2 mL plate. To all spiked plasma samples, 50 μL of blank plasma ultrafiltrate was added. 50 μL of blank plasma was added to all experimental ultrafiltrate samples. These blank matrix additions normalized the matrix effects for protein binding determination. Samples were then extracted using protein precipitation with a 3:1 ratio of acetonitrile after addition of internal standard. The supernatant transferred to a new plate, evaporated, and reconstituted prior to LC–MS/MS analysis.

[16] = Plasma stability, mouse; type: in vitro ADME; details: 37 °C
Description: as §4

[17] = Liver microsome stability assay, rat; type: in vitro ADME; details: 1 µM; for percent of compound remaining: male rat liver microsomes, 37 °C
Description: as §5

[18] = system: ST070 patient derived xenograft; test: ST070 ovarian PDX model; type: in vivo, nu/nu mice
Description: as §1, §2

[19] = system: ST040 patient derived xenograft; test: ST040 endometrial PDX model; type: in vivo, nu/nu mice
Description: as §1, §2

[20] = system: KB-PR tumors; test: Paclitaxel-resistant KB-PR tumor xenograft in nu/nu mice; type: in vivo
Description: as §3, §2

[21] = Eribulin mesylate 1 mg/kg SIW x 2 weeks, n=7
[22] = Cisplatin 3 mg/kg BIW x 2 weeks, n=5
[23] = Paclitaxel 15 mg/kg SIW x 2 weeks, n=7
[24] = paclitaxel 15 mg/kg SIW x 2 weeks
[25] = Paclitaxel 15 mg/kg SIW x 2 weeks, n=3
[26] = Paclitaxel 20 mg/kg TIW x 2 weeks, n=5

With `C=C1C[C@@H]2CC[C@@]34C[C@H]5O[C@H]6[C@@H](O3)[C@H]3O[C@H](CC[C@@H]3O[C@H]6[C@H]5O4)CC(=O)C[C@@H]3[C@@H](OC)[C@@H](C[C@H](O)CN)O[C@H]3C[C@H]3O[C@@H](CC[C@@H]1O2)C[C@@H](C)C3=C` [eribulin mesylate] the “CR (complete response), number of animals” value (“CR (complete response)” below) [1, 21] was 0, the “Cures, number of animals” value [1, 21] was 0 and the “PR (partial response), number of animals” value [1, 21] was “one”. For the same compound, the “PR (partial response), number of animals” value ([1]; Eribulin mesylate 1 mg/kg SIW x 2 weeks, n=7, listed as Eribulin mesylate) was 1, the antitumor activity ([1]; eribulin mesylate 1 mg/kg SIW x 2 weeks) was “did not display significant anti-tumor activity” and the “CR (complete response)” value [2] was 0. For the same compound, the “Cures, number of animals” value [2] was 0, the “PR (partial response), number of animals” value [2] was “two” and the “PR (partial response), number of animals” value ([2]; listed as Eribulin mesylate) was 2.

With `N.N.[Cl][Pt][Cl]` [cisplatin] the “CR (complete response)” value [3, 22] was 0, the “Cures, number of animals” value [3, 22] was 0 and the “PR (partial response), number of animals” value [3, 22] was 0. The antitumor effect ([3]; cisplatin 3 mg/kg BIW x 2 weeks) was “very little effect”.

For `C=C1C[C@H]2C=Nc3cc(OCCCOc4cc5c(cc4OC)C(=O)N4CC(=C)C[C@H]4C=N5)c(OC)cc3C(=O)N2C1` [SJG-136], the clinical toxicity [4] is listed as “dose-limiting hepatotoxicity and vascular leak syndrome”, the average weight loss [5] is listed as ~ 10% and the “deaths, number of animals” value ([5]; at 2 weeks post start of treatment, n=5) is listed as “one”. For the same compound, the “CR (complete response)” value ([5]; n=5) was 0, the “Cures, number of animals” value ([5]; n=5) was 2 and the “PR (partial response), number of animals” value ([5]; n=5) was 2.

With `C=C1C[C@H]2C=Nc3cc(OCCCCCOc4cc5c(cc4OC)C(=O)N4CC(=C)C[C@H]4C=N5)c(OC)cc3C(=O)N2C1` [EC2491] the “time stable in plasma” value [6] was “greater than 24 h”, the “time stable in plasma” value [7] was “greater than 24 h” and the remaining at 2 h, 500 nM [8] was 95.6%. The remaining at 2 h, 500 nM [9] was 80.6%, the “percent of compound remaining” value ([10]; dog liver microsomes, absence of NADPH, after 1 h) was ~56% and the “percent of compound remaining” value ([10]; male dog liver microsomes, presence of NADPH, end of 1 h) was 22%. For the same compound, the “metabolism in CYP3A induced microsomes versus corn-oil treated controls” value ([10]; rifampin-treated dog liver microsomes, + NADPH) was “more rapid metabolism”, the remaining at 2 h, 500 nM [11] was 63.1% and the remaining at 2 h, 500 nM [12] was 87.3%. For the same compound, the “percent of compound remaining” value ([13]; absence of NADPH, after 1 h) was ~49%, the “percent of compound remaining” value ([13]; presence of NADPH, end of 1 h) was 18% and the stability in buffer [14] was “stable”. The fraction unbound at 30 min, 500 nM [15] was 0.02 to 0.05, the “time stable in plasma” value [16] was “greater than 24 h” and the “metabolism in CYP3A induced microsomes versus corn-oil treated controls” value ([17]; dexamethasone-treated male rat liver microsomes, + NADPH) was “more rapid metabolism”. For the same compound, the “percent of compound remaining” value ([17]; absence of NADPH, after 1 h) was “approximately 63%” and the “percent of compound remaining” value ([17]; presence of NADPH, end of 1 h) was 2%.

In the case of `CC(=O)O[C@H]1C(=O)[C@@]2(C)[C@H]([C@H](OC(=O)c3ccccc3)[C@]3(O)C[C@H](OC(=O)[C@H](O)[C@@H](NC(=O)c4ccccc4)c4ccccc4)C(C)=C1C3(C)C)[C@]1(OC(C)=O)CO[C@@H]1C[C@@H]2O` [paclitaxel], the “CR (complete response)” value [18, 23] is reported as 0, the “Cures, number of animals” value [18, 23] is reported as 0 and the “PR (partial response), number of animals” value [18, 23] is reported as 0. The antitumor effect [18, 24] was “essentially inactive”, the “CR (complete response)” value [19, 25] was 0 and the “Cures, number of animals” value [19, 25] was 0. For the same compound, the “PR (partial response), number of animals” value [19, 25] was 0, the antitumor effect [19, 24] was “modest tumor growth delay” and the “CR (complete response)” value [20, 26] was 0. For the same compound, the “Cures, number of animals” value [20, 26] was 0, the “PR (partial response), number of animals” value [20, 26] was 0 and the antitumor effect ([20]; paclitaxel 20 mg/kg TIW x 2 weeks) was “very little effect”.

Source: publication PMC7391724 (Scientific Reports, 2020)
